# Test results: patent US11077210B2, “Near-infrared fluorescent contrast bioimaging agents and methods of use thereof” (Beth Israel Deaconess Medical Center, priority 2013, dated 2021)
# Assays:
# Assay type in all cases: in vivo
# spinal cartilage = assay: Cartilage NIR fluorescence imaging (FLARE); conditions: 35 kg female pig, 5 μmol intravenously, 4 hours, Channel 1 (700 nm) or Channel 2 (800 nm)
# Experimental: (§1) Absorbance and fluorescence emission spectra were measured using fiber optic HR2000 absorbance (200-1100 nm) and USB2000FL fluorescence (350-1000 nm) spectrometers (Ocean Optics, Dunedin, Fla.). Excitation was provided by a 532 nm green laser pointer (Opcom Inc., Xiamen, China) set to 5 mW, a 655 nm red laser pointer (Opcom Inc., Xiamen, China) set to 5 mW, or a 770 nm NIR laser diode light source (Electro Optical Components, Santa Rosa, Calif.) set to 10 mW and coupled through a 300 μm core diameter, NA 0.22 fiber (Fiberguide Industries, Stirling, N.J.). In silico calculations of the partition coefficient (log D at pH 7.4) and surface molecular charge and hydrophobicity were calculated using MarvinSketch 5.2.1 by taking major microspecies at pH 7.4 (ChemAxon, Budapest, Hungary). NIR Fluorescence Imaging System The dual-NIR channel FLARE′ imaging system has been described in detail previously (26-28). […] Color and two independent NIR fluorescence emission images (≈700 nm for Channel 1 and ≈800 nm for Channel 2) were acquired simultaneously with custom software at rates up to 15 Hz over a 15 cm diameter field of view. NIR fluorescence from Channel 1 was pseudo-colored in red and NIR fluorescence from Channel 2 was pseudo-colored in lime green prior to merger with the color video image. […] Animal Models and Intraoperative NIR Fluorescence Imaging […]
# SLN = assay: Sentinel lymph node (SLN) NIR fluorescence imaging (FLARE); conditions: 35 kg female pig, 5 nmol subcutaneously into bowel, 5 min; Channel 1 (700 nm) or Channel 2 (800 nm)
# Experimental: as §1
# pan lymph nodes = assay: Pan lymph node NIR fluorescence imaging (FLARE); conditions: 250 g male rat, 20 nmol intravenously, 4 hours; Channel 1 (700 nm) or Channel 2 (800 nm)
# Experimental: as §1
# [1] = system: neuroendocrine tumors (insulinoma); assay: Neuroendocrine tumor NIR fluorescence imaging (FLARE); conditions: 25 g male insulinoma-bearing mouse, 140 nmol intravenously, 1 hour, pancreas imaged; Channel 1 (700 nm) or Channel 2 (800 nm)
# Experimental: as §1
# ovaries = assay: Ovary NIR fluorescence imaging (FLARE); conditions: 25 g female mouse, 25 nmol intravenously, 4 hours; Channel 1 (700 nm) or Channel 2 (800 nm)
# Experimental: as §1
# prostate = assay: Prostate NIR fluorescence imaging (FLARE); conditions: 25 g male mouse, 25 nmol intravenously, 4 hours; Channel 1 (700 nm) or Channel 2 (800 nm)
# Experimental: as §1
# gallbladder = assay: Gallbladder NIR fluorescence imaging (FLARE); conditions: 25 g male mouse, 25 nmol intravenously, 4 hours; Channel 1 (700 nm) or Channel 2 (800 nm)
# Experimental: as §1
# bone (rib cage) = assay: Bone NIR fluorescence imaging (FLARE); conditions: 35 kg female pig, 5 μmol intravenously, 4 hours, Channel 1 (700 nm) or Channel 2 (800 nm)
# Experimental: as §1
# Peyer's patches = Peyer's patches NIR fluorescence imaging (FLARE); conditions: 250 g male rat, 100 nmol intravenously, 4 hours; Channel 2 (800 nm)
# Experimental: as §1
# brain vasculature = assay: Brain vasculature NIR fluorescence imaging (FLARE); conditions: 25 g male mouse, 25 nmol intravenously, 4 hours; Channel 1 (700 nm)
# Experimental: as §1
# CSF = CSF NIR fluorescence imaging (FLARE); conditions: 35 kg female pig, 5 μmol intravenously, 4 hours; Channel 1 (700 nm) or Channel 2 (800 nm)
# Experimental: as §1
smiles,measurement,setting,value
C[N+](C)(C)CCCN1/C(=C/C=C/C=C/c2sc3cc(O)ccc3[n+]2CCC[N+](C)(C)C)Sc2cc(O)ccc21 [SP56],NIR fluorescence contrast of the cartilage,spinal cartilage,highlighted with high contrast
CC1(C)C(/C=C/C2=C(Oc3ccc(CCC(=O)O)cc3)C(=C/C=C3/N(CCC[N+](C)(C)C)c4ccccc4C3(C)C)/CCC2)=[N+](CCC[N+](C)(C)C)c2ccccc21 [MM25],NIR fluorescence contrast of the SLN,SLN,highlighted with high contrast
same,NIR fluorescence contrast of all lymph nodes,pan lymph nodes,highlighted with high contrast
CN(C)c1ccc2nc3ccc(=[N+](C)C)cc-3oc2c1 [ESS61],NIR fluorescence contrast of the tumors,[1],highlighted with high contrast
CC1(C)C(/C=C/C2=C(Sc3ccc(CCN)cc3)C(=C/C=C3/N(CCC[N+](C)(C)C)c4ccc(S(=O)(=O)O)cc4C3(C)C)/CCC2)=[N+](CCC[N+](C)(C)C)c2ccc(S(=O)(=O)O)cc21 [LN50],NIR fluorescence contrast of the cartilage,spinal cartilage,highlighted with high contrast
CCN(CC)c1ccc(/C=C/C2=CC(/C=C/c3ccc(N(CC)CC)cc3O)=[O+][B-](F)(F)O2)c(O)c1 [PS62],NIR fluorescence contrast of the ovaries,ovaries,highlighted with high contrast
same,NIR fluorescence contrast of the prostate,prostate,highlighted with high contrast
same,NIR fluorescence contrast of the gallbladder,gallbladder,highlighted with high contrast
CC1(C)C(/C=C/C(C/C=C2/N(CCCP(=O)(O)O)c3ccc(S(=O)(=O)[O-])cc3C2(C)C)c2ccc(CCC(=O)O)cc2)=[N+](CCCP(=O)(O)O)c2ccc(S(=O)(=O)O)cc21 (centres unmarked) [P700SO3],NIR fluorescence contrast of the bone,bone (rib cage),highlighted with high contrast
CC1(C)C(/C=C/C=C/C=C/C=C2/N(CCC[N+](C)(C)C)c3ccccc3C2(C)C)=[N+](CCC[N+](C)(C)C)c2ccccc21 [AL30],NIR fluorescence contrast of the Peyer's patches,Peyer's patches,highlighted with high contrast
CCN1/C(=C/C=C/C=C/C2=[N+](CC)c3ccc4ccccc4c3C2(C)C)C(C)(C)c2c1ccc1ccccc21 [MHI86],NIR fluorescence contrast of the SLN,SLN,highlighted with high contrast
CNCCCN1/C(=C/C=C/C=C/c2sc3cc(O)ccc3[n+]2CCCNC)Sc2cc(O)ccc21 [ZK214],NIR fluorescence contrast of the brain vasculature,brain vasculature,highlighted with high contrast
CN1/C(=C/C=C/C=C/C=C/C2=[N+](C)c3ccccc3C2(C)C)C(C)(C)c2ccccc21 [AL20],NIR fluorescence contrast of the tumors,[1],highlighted with high contrast
same,NIR fluorescence contrast of the CSF,CSF,highlighted with high contrast
